Measurements published in patent US4255183A, “Substituted phenyl urea and herbicides for use in paddy field” (Hokko Chemical Industry Co., Ltd., priority 1977, dated 1981).

Tests used:
paddy rice [1] = assay: whole plant or invertebrate; assay type: in vivo, paddy rice (Asahi species); settings: granule, 30 days; for Inhibition (%) by treatment at 1-leaf stage of E. crus-galli var. oryzicola, paddy rice: rice at 3.5 leaves stage; for Inhibition (%) by treatment at 5-leaf stage of E. crus-galli var. oryzicola, paddy rice: rice at 7 leaves stage
Protocol: (§1) In a Wagner pot of 1/500 are, paddy field soil (alluvial soil) was placed and 50 seeds of Echinochloa crus-galli var. oryzicola and 30 seeds of paddy rice were seeded in the surface layer of said soil and the submerging depth was kept at about 1 cm. When Echinochloa crus-galli var. oryzicola reached at the one leaf stage and 5-leaf stage, the emulsion of a predetermined concentration, prepared according to Example 4 was added dropwise. After 30 days from the treatment with the chemical, dry weights of Echinochloa crus-galli var. oryzicola and paddy rice were measured and the inhibition rate was calculated with reference to untreated area. [formula]
(§2) In a concrete pot of 1/400 are (50 cm×50 cm), paddy field soil (alluvial soil) was placed and 200 seeds of Echinochloa crus-galli var. oryzicola were seeded in 10 surface layer of said soil and the soil was submerged at about 3 cm depth. Before emergence of Echinochloa crus-galli var. oryzicola, paddy rice at 2.5-leaf stage (Asahi species) was transplanted at the rate of 8 stubs per pot, planting 3 seedlings per stub. At the one-leaf stage (3.5 leaves stage of paddy rice) and 5 leaves stage (7 leaves stage of paddy rice) of Echinochloa crus-galli var. oryzicola, the granule prepared according to Example 1 was applied. […] 30 Days after the treatment with the chemical, examination was made in the similar manner as Test Example 1 to obtain results as shown in Table 2.
(§3) In the table, as the comparative chemicals CPN, Benthiocarb, Molinate and Simetryne, those commercially available were used and the comparative chemicals A and B (as mentioned before) used were prepared according to the process for preparing the compound of this invention.

paddy rice [2] = assay: Test Example 1: pot test on selectivity, inhibition of paddy rice; assay type: in vivo; settings: dry weight 30 days after treatment
Protocol: In a Wagner pot of 1/500 are, paddy field soil (alluvial soil) was placed and 50 seeds of Echinochloa crus-galli var. oryzicola and 30 seeds of paddy rice were seeded in the surface layer of said soil and the submerging depth was kept at about 1 cm. […] After 30 days from the treatment with the chemical, dry weights of Echinochloa crus-galli var. oryzicola and paddy rice were measured and the inhibition rate was calculated with reference to untreated area. [formula]
(§4) The comparative chemicals used, i.e. DCMU and Linuron, were those commercially available, and the comparative chemicals A and B used were prepared according to the process for formulating the compound of this invention.

[3] = test system: Echinochloa crus-galli var. oryzicola; assay: Test Example 2: concrete pot test on killing effect, Echinochloa crus-galli var. oryzicola; assay type: in vivo; settings: granule, 30 days after treatment
Protocol: as §1, §2, §3

[4] = test system: Echinochloa crus-galli var. oryzicola; assay: Test Example 1: pot test on selectivity, inhibition of Echinochloa crus-galli var. oryzicola; assay type: in vivo; settings: dry weight 30 days after treatment
Protocol: as §1, §4

Row | SMILES | Inhibition (%) by treatment at 1-leaf stage of E. crus-galli var. oryzicola, paddy rice (paddy rice [1]; 100 g/10 are) [%] | Inhibition (%) by treatment at 5-leaf stage of E. crus-galli var. oryzicola, paddy rice (paddy rice [1]; 100 g/10 are) [%] | Inhibition (%) by treatment at 1-leaf stage of E. crus-galli var. oryzicola, paddy rice (paddy rice [1]; 300 g/10 are) [%] | Inhibition (%) by treatment at 5-leaf stage of E. crus-galli var. oryzicola, paddy rice (paddy rice [1]; 300 g/10 are) [%] | Inhibition (%) by treatment at 1-leaf stage of E. crus-galli var. oryzicola, paddy rice (paddy rice [1]; 900 g/10 are) [%] | Inhibition (%) by treatment at 5-leaf stage of E. crus-galli var. oryzicola, paddy rice (paddy rice [1]; 900 g/10 are) [%] | Inhibition (%) by treatment at 1-leaf stage, paddy rice (paddy rice [2]; 75 g/10 are) [%] | Inhibition (%) by treatment at 5-leaf stage, paddy rice (paddy rice [2]; 75 g/10 are) [%] | Inhibition (%) by treatment at 1-leaf stage, paddy rice (paddy rice [2]; 150 g/10 are) [%] | Inhibition (%) by treatment at 5-leaf stage, paddy rice (paddy rice [2]; 150 g/10 are) [%] | Inhibition (%) by treatment at 1-leaf stage, paddy rice (paddy rice [2]; 300 g/10 are) [%] | Inhibition (%) by treatment at 5-leaf stage, paddy rice (paddy rice [2]; 300 g/10 are) [%] | Inhibition (%) by treatment at 1-leaf stage, paddy rice (paddy rice [2]; 600 g/10 are) [%] | Inhibition (%) by treatment at 5-leaf stage, paddy rice (paddy rice [2]; 600 g/10 are) [%] | Inhibition (%) by treatment at 1-leaf stage, paddy rice (paddy rice [2]; 900 g/10 are) [%] | Inhibition (%) by treatment at 5-leaf stage, paddy rice (paddy rice [2]; 900 g/10 are) [%] | Inhibition (%) by treatment at 1-leaf stage of E. crus-galli var. oryzicola, E. crus-galli var. oryzicola ([3]; 100 g/10 are) [%] | Inhibition (%) by treatment at 5-leaf stage of E. crus-galli var. oryzicola, E. crus-galli var. oryzicola ([3]; 100 g/10 are) [%] | Inhibition (%) by treatment at 1-leaf stage of E. crus-galli var. oryzicola, E. crus-galli var. oryzicola ([3]; 300 g/10 are) [%] | Inhibition (%) by treatment at 5-leaf stage of E. crus-galli var. oryzicola, E. crus-galli var. oryzicola ([3]; 300 g/10 are) [%] | also measured
1 | CNC(=O)Nc1ccc(OCC=C(C)Cl)cc1 [Comparative chemical B] | 0 | 0 | 0 | 0 | 40 | 7 | 0 | 0 | 0 | 0 | 36 | 0 | 60 | 7 | 72 | 26 | 20 | 0 | 75 | 0 | Inhibition (%) by treatment at 1-leaf stage of E. crus-galli var. oryzicola, E. crus-galli var. oryzicola ([3]; 900 g/10 are): 100%; Inhibition (%) by treatment at 5-leaf stage of E. crus-galli var. oryzicola, E. crus-galli var. oryzicola ([3]; 900 g/10 are): 30%; Inhibition (%) by treatment at 1-leaf stage, E. crus-galli var. oryzicola ([4]; 75 g/10 are): 10%; Inhibition (%) by treatment at 5-leaf stage, E. crus-galli var. oryzicola ([4]; 75 g/10 are): 0%; Inhibition (%) by treatment at 1-leaf stage, E. crus-galli var. oryzicola ([4]; 150 g/10 are): 35%; Inhibition (%) by treatment at 5-leaf stage, E. crus-galli var. oryzicola ([4]; 150 g/10 are): 0%; Inhibition (%) by treatment at 1-leaf stage, E. crus-galli var. oryzicola ([4]; 300 g/10 are): 80%; Inhibition (%) by treatment at 5-leaf stage, E. crus-galli var. oryzicola ([4]; 300 g/10 are): 7%; Inhibition (%) by treatment at 1-leaf stage, E. crus-galli var. oryzicola ([4]; 600 g/10 are): 100%; Inhibition (%) by treatment at 5-leaf stage, E. crus-galli var. oryzicola ([4]; 600 g/10 are): 12%; Inhibition (%) by treatment at 1-leaf stage, E. crus-galli var. oryzicola ([4]; 900 g/10 are): 100%; Inhibition (%) by treatment at 5-leaf stage, E. crus-galli var. oryzicola ([4]; 900 g/10 are): 36%
2 | CC(Cl)=CCOc1ccc(NC(=O)N(C)C)cc1 [Comparative chemical A] | 0 | 0 | 0 | 0 | 23 | 5 | 0 | 0 | 0 | 0 | 0 | 0 | 15 | 0 | 35 | 12 | 100 | 48 | 100 | 72 | Inhibition (%) by treatment at 1-leaf stage of E. crus-galli var. oryzicola, E. crus-galli var. oryzicola ([3]; 900 g/10 are): 100%; Inhibition (%) by treatment at 5-leaf stage of E. crus-galli var. oryzicola, E. crus-galli var. oryzicola ([3]; 900 g/10 are): 98%; Inhibition (%) by treatment at 1-leaf stage, E. crus-galli var. oryzicola ([4]; 75 g/10 are): 87%; Inhibition (%) by treatment at 5-leaf stage, E. crus-galli var. oryzicola ([4]; 75 g/10 are): 37%; Inhibition (%) by treatment at 1-leaf stage, E. crus-galli var. oryzicola ([4]; 150 g/10 are): 100%; Inhibition (%) by treatment at 5-leaf stage, E. crus-galli var. oryzicola ([4]; 150 g/10 are): 67%; Inhibition (%) by treatment at 1-leaf stage, E. crus-galli var. oryzicola ([4]; 300 g/10 are): 100%; Inhibition (%) by treatment at 5-leaf stage, E. crus-galli var. oryzicola ([4]; 300 g/10 are): 82%; Inhibition (%) by treatment at 1-leaf stage, E. crus-galli var. oryzicola ([4]; 600 g/10 are): 100%; Inhibition (%) by treatment at 5-leaf stage, E. crus-galli var. oryzicola ([4]; 600 g/10 are): 95%; Inhibition (%) by treatment at 1-leaf stage, E. crus-galli var. oryzicola ([4]; 900 g/10 are): 100%; Inhibition (%) by treatment at 5-leaf stage, E. crus-galli var. oryzicola ([4]; 900 g/10 are): 100%
